Reference: publication PMC6934184, “Selective DNA-PKcs inhibition extends the therapeutic index of localized radiotherapy and chemotherapy” (The Journal of Clinical Investigation, 2019)

Target: T1, CAMK1 (CaMK1) (Homo sapiens, UniProt Q14012)
T1 construct: purchased Thermo Fisher Scientific (Life Technologies) SelectScreen
Assay: SelectScreen Adapta
Type: biochemical
Conditions: ATP 10 µM
How it was run: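 SelectScreen broad panel; activity (Z'LYTE, Adapta) plus binding formats. ATP: Km app for CSF1R Z'LYTE; 10 for CAMK1 Adapta. Readout = % per kinase.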

T1 sequence (Q14012 whole entry): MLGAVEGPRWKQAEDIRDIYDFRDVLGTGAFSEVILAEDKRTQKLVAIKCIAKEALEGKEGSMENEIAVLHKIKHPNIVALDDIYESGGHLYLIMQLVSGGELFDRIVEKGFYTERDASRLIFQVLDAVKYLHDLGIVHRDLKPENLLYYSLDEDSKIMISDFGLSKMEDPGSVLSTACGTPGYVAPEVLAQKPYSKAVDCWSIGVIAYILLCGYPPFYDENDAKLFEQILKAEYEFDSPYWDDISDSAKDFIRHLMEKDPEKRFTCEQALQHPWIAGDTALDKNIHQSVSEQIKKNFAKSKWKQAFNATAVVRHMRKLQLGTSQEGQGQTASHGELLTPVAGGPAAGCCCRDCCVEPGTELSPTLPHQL

**Q.** Which inhibition at 1 µM does the source give for `CN(C(=O)CN1CCOCC1)c1ccc2sc3c(-c4cccc5c(=O)cc(N6CC7CCC(C6)O7)oc45)cccc3c2c1` [NU5455] here?
**A.** 0.8%
